Drawing on patent US11192893B2, “Pyrazoloquinazolinone antitumor agents” (The Rockefeller University, priority 2017, dated 2021), this text covers activity and IC50 for 25 compounds.

pIC50: −log10 of the molar value.

The subject of this test is Hedgehog pathway activity. The experiment in a line: Shh-Light luciferase reporter assay of Hedgehog pathway activity (Shh-Light2 cells, SAG-stimulated). In kind it is cell-based. The conditions noted are these: for activity at 2 µM: 2 μM compound, read-out: SHH-light % residual @ 2 μM; for activity at 2 µM / activity at 20 µM: SAG 500 nM; for activity at 20 µM: 20 μM compound, read-out: SHH-light % residual @ 20 μM; for pIC50: Table 2, SAG 500 nM, 28-32 hr treatment, read-out: Shh-light IC50. The method, then:
To examine the inhibition of dynein 2 in cell-based assays, an established luciferase reporter-based cellular assay of Hedgehog pathway activity was employed [Taipale et al., Nature. 2000; 406(6799): 1005-9]. Signaling in this pathway depends on the function of dynein 2. In this setting, expression of luciferase driven by Hedgehog pathway activity was inhibited by compound 5 with an IC50 value of 0.9±0.5 μM. […] The potencies of these compounds in this cell-based assay match the rank-order of dynein 2 inhibition in vitro. In these assays, Hedgehog pathway activity was stimulated using the Synthetic Agonist of Smoothened (SAG). This compound competes with many Hedgehog pathway inhibitors for binding to Smoothened, a key node in the signaling pathway.
SHH-Light Assay (Steinman et al. eLife 2017; 6:e25174.)
NIH-3T3 cells stably expressing a luciferase reporter downstream of a Gli binding site (Shh-Light2 cells, RRID: CVCL_2721) were maintained in DMEM with 10% bovine calf serum (BCS). Cells were seeded at a density of 30,000 cells/well in 96-well tissue culture-treated plates (Corning, cat #353072) in 100 μL in DMEM+10% BCS, and incubated for 48 hr (Taipale et al., 2000). Wells were washed briefly with PBS. Next […] of low serum media (DMEM+0.5% BCS) containing smoothened agonist (SAG, 500 nM), and either solvent control (0.2% DMSO) or test compound (serial three-fold dilutions of each inhibitor starting from 20 μM) were added to the wells. After 28-32 hr of inhibitor treatment, cells were washed with 50 μL PBS and lysed for >30 min in 30 μL Passive Lysis Buffer (Promega Dual Luciferase kit, cat E1910). 5 uL of each lysate was transferred to white, solid-bottom 96-well plates (Greiner, cat #655075), followed by rapid addition (within 30 s) of 30 μL of Luciferase Assay Reagent using a multichannel pipette. Luminescence for each condition was read using a Synergy Neo plate reader (5 s integration time per well). Cell line identity was confirmed by measurement of the degree of response to Hedgehog pathway stimulation by the synthetic agonist SAG and using previously published values from our groups and others as references (Firestone et al., 2012; Hyman et al., 2009).

On to `N#Cc1ccc2[nH]c3c(C#N)c(C4(c5ccc(Cl)cc5)CC4)nn3c(=O)c2c1` [Example 10, 2-[1-(4-Chlorophenyl)cyclopropyl]-9-oxo-4H-pyrazolo[5,1-b]quinazoline-3,7-dicarbonitrile], for which the activity at 2 µM is 70.1% and the activity at 20 µM came out at 10%.

What is called pIC50 is the negative decadic logarithm of the IC50, by convention in mol/L. For `N#Cc1c(C2(c3ccc(Cl)cc3)CC2)nn2c(=O)c3cc(C(F)(F)F)ccc3[nH]c12` [Example 11, 2-[1-(4-Chlorophenyl)cyclopropyl]-9-oxo-7-(trifluoromethyl)-4H-pyrazolo[5,1-b]quinazoline-3-carbonitrile], the activity at 2 µM came out at 17.7%, the activity at 20 µM was -4.1% and the pIC50 is 6.14.

With `N#Cc1c(C2CCC(c3ccc(Cl)cc3)CC2)nn2c(=O)c3cc(C4CC4)ccc3[nH]c12` (stereo not drawn) [Example 13, 2-[4-(4-Chlorophenyl)cyclohexyl]-7-cyclopropyl-9-oxo-4H-pyrazolo[5,1-b]quinazoline-3-carbonitrile], the activity at 2 µM was -3.1%, the activity at 20 µM was -3.6% and the pIC50 was 6.47.

Consider `N#Cc1c(C2(c3ccc(Cl)cc3)CC2)nn2c(=O)c3cc(C4CC4)ccc3[nH]c12` [Example 14, 2-[1-(4-Chlorophenyl)cyclopropyl]-7-cyclopropyl-9-oxo-4H-pyrazolo[5,1-b]quinazoline-3-carbonitrile], for which the activity at 2 µM is -2.3%, the activity at 20 µM was -1.8% and the pIC50 was 6.33.

Turning to `N#Cc1c(C2CCC(c3ccc(Cl)cc3)CC2)nn2c(=O)c3cc(C(F)(F)F)ccc3[nH]c12` (stereo not drawn) [Example 15, 2-[4-(4-Chlorophenyl)cyclohexyl]-9-oxo-7-(trifluoromethyl)-4H-pyrazolo[5,1-b]quinazoline-3-carbonitrile], the activity at 2 µM is -3.1%, the activity at 20 µM is -4% and the pIC50 was 6.49.

As for `N#Cc1c(C2CCN(c3ccc(Cl)cc3)CC2)nn2c(=O)c3cc(C(F)(F)F)ccc3[nH]c12` [Example 16, 2-[1-(4-Chlorophenyl)-4-piperidyl]-9-oxo-7-(trifluoromethyl)-4H-pyrazolo[5,1-b]quinazoline-3-carbonitrile], the activity at 2 µM came out at 33.7% and the activity at 20 µM is -4.1%.

With `N#Cc1c(C2CCC(c3ccc(Cl)cc3)CC2)nn2c(=O)c3cc(Cl)ccc3[nH]c12` (stereo not drawn) [Example 17, 7-Chloro-2-[4-(4-chlorophenyl)cyclohexyl]-9-oxo-4H-pyrazolo[5,1-b]quinazoline-3-carbonitrile], the activity at 2 µM was -2.3%, the activity at 20 µM was -3.9% and the pIC50 was 6.22.

Take `N#Cc1c(C2(c3ccc(Cl)cc3)CC2)nn2c(=O)c3cc(Cl)ccc3[nH]c12` [Example 18, 7-Chloro-2-[1-(4-chlorophenyl)cyclopropyl]-9-oxo-4H-pyrazolo[5,1-b]quinazoline-3-carbonitrile]: the activity at 2 µM is -0.5%, the activity at 20 µM worked out at 2.8% and the pIC50 was 6.12.

For `N#Cc1c(C2(c3ccc(Cl)cc3)CC2)nn2c(=O)c3cc(F)ccc3[nH]c12` [Example 19, 2-[1-(4-Chlorophenyl)cyclopropyl]-7-fluoro-9-oxo-4H-pyrazolo[5,1-b]quinazoline-3-carbonitrile], the activity at 2 µM was found to be 1.4%, the activity at 20 µM is -0.4% and the pIC50 was 5.80.

Consider `N#Cc1c(N2CCC(c3ccc(Cl)cc3)CC2)nn2c(=O)c3cc(Cl)ccc3[nH]c12` [Example 20, 7-Chloro-2-[4-(4-chlorophenyl)-1-piperidyl]-9-oxo-4H-pyrazolo[5,1-b]quinazoline-3-carbonitrile], for which the activity at 2 µM is -2.5%, the activity at 20 µM is -3.1% and the pIC50 was 6.48.

For `N#Cc1c(C2CCN(c3ccc(Cl)cc3)CC2)nn2c(=O)c3cc(Cl)ccc3[nH]c12` [Example 21, 7-Chloro-2-[1-(4-chlorophenyl)-4-piperidyl]-9-oxo-4H-pyrazolo[5,1-b]quinazoline-3-carbonitrile], the activity at 2 µM was -2% and the activity at 20 µM was -2.6%.

`N#Cc1c(C2CCC(c3ccc(Cl)cc3)CC2)nn2c(=O)c3cc(Br)ccc3[nH]c12` (stereo not drawn) [Example 22, 7-Bromo-2-[4-(4-chlorophenyl)cyclohexyl]-9-oxo-4H-pyrazolo[5,1-b]quinazoline-3-carbonitrile]: the activity at 2 µM was -2.9%, the activity at 20 µM was -2.8% and the pIC50 was 6.17.

Regarding `N#Cc1c(OC2CCN(c3ncc(Cl)cn3)CC2)nn2c(=O)c3cc(Cl)ccc3[nH]c12` [Example 23, 7-Chloro-2-[[1-(5-chloropyrimidin-2-yl)-4-piperidyl]oxy]-9-oxo-4H-pyrazolo[5,1-b]quinazoline-3-carbonitrile], the activity at 2 µM worked out at 8.2% and the activity at 20 µM was -2.9%.

Consider `N#Cc1c(OC2CCN(C(=O)c3ccc(Cl)cc3)CC2)nn2c(=O)c3cc(Cl)ccc3[nH]c12` [Example 24, 7-Chloro-2-[[1-(4-chlorobenzoyl)-4-piperidyl]oxy]-9-oxo-4H-pyrazolo[5,1-b]quinazoline-3-carbonitrile], for which the activity at 2 µM came to 72.4% and the activity at 20 µM turned out to be 1.6%.

In the case of `N#Cc1c(OC2CCN(c3ccc(Cl)cn3)CC2)nn2c(=O)c3cc(Cl)ccc3[nH]c12` [Example 25, 7-Chloro-2-[[1-(5-chloro-2-pyridyl)-4-piperidyl]oxy]-9-oxo-4H-pyrazolo[5,1-b]quinazoline-3-carbonitrile], the activity at 2 µM amounted to 41.7% and the activity at 20 µM was -3.8%.

Turning to `NC(=O)c1c(C2CCC(c3ccc(Cl)cc3)CC2)nn2c(=O)c3ccccc3[nH]c12` (stereo not drawn) [Example 26, 2-[4-(4-Chlorophenyl)cyclohexyl]-9-oxo-4H-pyrazolo[5,1-b]quinazoline-3-carboxamide], the activity at 2 µM is 68.8% and the activity at 20 µM was -4.5%.

On to `NC(=O)c1c(CCCOc2ccc(Cl)cc2)nn2c(=O)c3ccccc3[nH]c12` [Example 28, 2-[3-(4-Chlorophenoxy)propyl]-9-oxo-4H-pyrazolo[5,1-b]quinazoline-3-carboxamide], for which the activity at 2 µM turned out to be 68.9% and the activity at 20 µM was 40.3%.

For the compound `NC(=O)c1c(C2(c3ccc(Cl)cc3)CC2)nn2c(=O)c3ccccc3[nH]c12` [Example 30, 2-[1-(4-Chlorophenyl)cyclopropyl]-9-oxo-4H-pyrazolo[5,1-b]quinazoline-3-carboxamide], the activity at 2 µM came out at 101% and the activity at 20 µM came to 22.1%.

For the compound `NC(=O)c1c(-c2ccc(Cl)cc2Cl)nn2c(=O)c3ccccc3[nH]c12` [Example 32, 2-(2,4-Dichlorophenyl)-9-oxo-4H-pyrazolo[5,1-b]quinazoline-3-carboxamide], the activity at 20 µM is 57.5%.

Regarding `N#Cc1c(-c2ccc(Cl)cc2Cl)nn2c(=O)c3ccccc3[nH]c12` [Example 33, 2-(2,4-Dichlorophenyl)-9-oxo-4H-pyrazolo[5,1-b]quinazoline-3-carbonitrile], the activity at 20 µM was -3.6% and the pIC50 was 5.70.

With `NC(=O)c1c(-c2ccc(Cl)cc2Cl)nn2c(=O)c3ccc(Cl)cc3[nH]c12` [Example 34, 6-Chloro-2-(2,4-dichlorophenyl)-9-oxo-4H-pyrazolo[5,1-b]quinazoline-3-carboxamide], the activity at 20 µM was -3.4% and the pIC50 is 5.44.

For `N#Cc1c(-c2ccc(Cl)cc2Cl)nn2c(=O)c3ccc(Cl)cc3[nH]c12` [Example 35, 6-Chloro-2-(2,4-dichlorophenyl)-9-oxo-4H-pyrazolo[5,1-b]quinazoline-3-carbonitrile], the pIC50 was 5.68.

As for `COc1cccc2c(=O)n3nc(-c4ccc(Cl)cc4Cl)c(C#N)c3[nH]c12` [Example 36, 2-(2,4-Dichlorophenyl)-5-methoxy-9-oxo-4H-pyrazolo[5,1-b]quinazoline-3-carbonitrile], the pIC50 was 5.00.

As to `COc1cccc2[nH]c3c(C#N)c(-c4ccc(Cl)cc4Cl)nn3c(=O)c12` [Example 37, 2-(2,4-Dichlorophenyl)-8-methoxy-9-oxo-4H-pyrazolo[5,1-b]quinazoline-3-carbonitrile], the activity at 2 µM came out at 100% and the activity at 20 µM came out at 18%.

For `COc1c(Cl)ccc2c(=O)n3nc(-c4ccc(Cl)cc4Cl)c(C#N)c3[nH]c12` [Example 38, 6-Chloro-2-(2,4-dichlorophenyl)-5-methoxy-9-oxo-4H-pyrazolo[5,1-b]quinazoline-3-carbonitrile], the activity at 2 µM turned out to be 74%, the activity at 20 µM stood at 19% and the pIC50 is 5.70.
